In brackets after ≈: the same amount, converted by molar mass. Activity calls are given as the source filed them. The rule behind the calls is not given here.
Key:
[1] = tested on: Escherichia coli; experiment: The compound was tested in vitro for antibacterial activity against Escherichia coli 250 UCS.; type: functional
[2] = tested on: Haemophilus influenzae; experiment: The compound was tested in vitro for antibacterial activity against Haemophilus influenza 351HT3.; type: functional
[3] = tested on: Staphylococcus aureus; experiment: The compound was tested in vitro for antibacterial activity against erythromycin susceptible Staphylococcus aureus 011UC4.; type: functional
[4] = tested on: Staphylococcus aureus; experiment: The compound was tested in vitro for antibacterial activity against inducibly erythromycin resistant Staphylococcus aureus 011GO25i.; type: functional
[5] = tested on: Streptococcus pneumoniae; experiment: The compound was tested in vitro for antibacterial activity against constitutively erythromycin resistant Streptococcus pneumoniae 030CR18c.; type: functional
[6] = tested on: Streptococcus pneumoniae; experiment: The compound was tested in vitro for antibacterial activity against constitutively erythromycin resistant Streptococcus pneumoniae 030PW23c.; type: functional
[7] = tested on: Streptococcus pneumoniae; experiment: The compound was tested in vitro for antibacterial activity against constitutively erythromycin resistant Streptococcus pneumoniae 030SJ1.; type: functional
[8] = tested on: Streptococcus pneumoniae; experiment: The compound was tested in vitro for antibacterial activity against erythromycin susceptible Streptococcus pneumoniae 032UC1.; type: functional
[9] = tested on: Staphylococcus aureus; experiment: The compound was tested in vitro for antibacterial activity against constitutively erythromycin resistant Staphylococcus aureus 011CB20.; type: functional
[10] = tested on: Streptococcus pyogenes; experiment: The compound was tested in vitro for antibacterial activity against erythromycin susceptible Streptococcus pyogenes 02A1UC1.; type: functional
[11] = tested on: Streptococcus pneumoniae; experiment: The compound was tested in vitro for antibacterial activity against inducibly erythromycin resistant Streptococcus pneumoniae 030J5i.; type: functional
[12] = tested on: Escherichia coli; experiment: The compound was tested in vitro for antibacterial activity against Escherichia coli 250 UCS; type: functional
[13] = tested on: Mus musculus; experiment: (§1) The compound was tested in vivo for antibacterial activity against AmpR beta(+) Haemophilus influenza 351RD7 in mice after oral administration; type: functional
[14] = tested on: Mus musculus; experiment: (§2) The compound was tested in vivo for antibacterial activity against AmpR beta(-) Haemophilus influenza 351TO19 in mice after oral administration; type: functional
[15] = tested on: Mus musculus; experiment: (§3) The compound was tested in vivo for antibacterial activity against Haemophilus influenza 351GR1 in mice after oral administration; type: functional
[16] = tested on: Haemophilus influenzae; experiment: The compound was tested in vitro for antibacterial activity against Haemophilus influenza 351HT3; type: functional
[17] = tested on: Mus musculus; experiment: The compound was tested in vivo for antibacterial activity against constitutively erythromycin resistant Streptococcus pneumoniae 030Cr29 in mice after oral administration; type: functional
[18] = tested on: Mus musculus; experiment: The compound was tested in vivo for antibacterial activity against constitutively erythromycin resistant Streptococcus pneumoniae 030MV2 in mice after oral administration; type: functional
[19] = tested on: Mus musculus; experiment: The compound was tested in vivo for antibacterial activity against constitutively erythromycin resistant Streptococcus pneumoniae 030SJ1 in mice after oral administration; type: functional
[20] = tested on: Mus musculus; experiment: The compound was tested in vivo for antibacterial activity against erythromycin susceptible Staphylococcus aureus 011UC4 in mice after oral administration; type: functional
[21] = tested on: Mus musculus; experiment: The compound was tested in vivo for antibacterial activity against erythromycin susceptible Streptococcus pneumoniae 032UC1 in mice after oral administration; type: functional
[22] = tested on: Mus musculus; experiment: The compound was tested in vivo for antibacterial activity against erythromycin susceptible Streptococcus pyogenes 02A1UC1 in mice after oral administration; type: functional
[23] = tested on: Mus musculus; experiment: The compound was tested in vivo for antibacterial activity against inducibly erythromycin resistant Staphylococcus aureus 011GO3 in mice after oral administration; type: functional
[24] = tested on: Mus musculus; experiment: The compound was tested in vivo for antibacterial activity against inducibly erythromycin resistant Streptococcus pneumoniae 030RO1 in mice after oral administration; type: functional
[25] = tested on: Staphylococcus aureus; experiment: The compound was tested in vitro for antibacterial activity against erythromycin susceptible Staphylococcus aureus 011UC4; type: functional
[26] = tested on: Staphylococcus aureus; experiment: The compound was tested in vitro for antibacterial activity against inducibly erythromycin resistant Staphylococcus aureus 011GO25i; type: functional
[27] = tested on: Streptococcus pneumoniae; experiment: The compound was tested in vitro for antibacterial activity against constitutively erythromycin resistant Streptococcus pneumoniae 030CR18c; type: functional
[28] = tested on: Streptococcus pneumoniae; experiment: The compound was tested in vitro for antibacterial activity against constitutively erythromycin resistant Streptococcus pneumoniae 030PW23c; type: functional
[29] = tested on: Streptococcus pneumoniae; experiment: The compound was tested in vitro for antibacterial activity against constitutively erythromycin resistant Streptococcus pneumoniae 030SJ1; type: functional
[30] = tested on: Streptococcus pyogenes; experiment: The compound was tested in vitro for antibacterial activity against erythromycin susceptible Streptococcus pyogenes 02A1UC1; type: functional
[31] = tested on: Staphylococcus aureus; experiment: The compound was tested in vitro for antibacterial activity against constitutively erythromycin resistant Staphylococcus aureus 011CB20; type: functional
[32] = tested on: Streptococcus pneumoniae; experiment: The compound was tested in vitro for antibacterial activity against inducibly erythromycin resistant Streptococcus pneumoniae 030J5i; type: functional
[33] = tested on: Streptococcus pneumoniae; experiment: The compound was tested in vitro for antibacterial activity against erythromycin susceptible Streptococcus pneumoniae 032UC1; type: functional
[34] = tested on: Haemophilus influenzae; experiment: The compound was tested in vitro for antibacterial activity against 39 strains of Haemophilus influenza AmpR; Value is 2.5/10; type: functional, organism-based
[35] = tested on: Haemophilus influenzae; experiment: The compound was tested in vitro for antibacterial activity against 47 strains of Haemophilus influenza AmpS; Value is 1.2/5; type: functional, organism-based
[36] = tested on: Mus musculus; experiment: The compound was tested in vivo for antibacterial activity against constitutively erythromycin resistant Streptococcus pneumoniae 030SJ6 in mice after oral administration; type: functional
[37] = tested on: Staphylococcus sp.; experiment: The compound was tested in vitro for antibacterial activity against 66 strains of inducibly erythromycin resistant Staphylococci; Value is 40/40; type: functional, organism-based
[38] = tested on: Streptococcus sp.; experiment: The compound was tested in vitro for antibacterial activity against 31 strains of erythromycin resistant Streptococci; Value is 1.2/40; type: functional, organism-based
[39] = tested on: Streptococcus pneumoniae; experiment: The compound was tested in vitro for antibacterial activity against 32 strains of inducibly erythromycin resistant Streptococcus pneumoniae Value is 40/40; type: functional, organism-based
[40] = tested on: Streptococcus pneumoniae; experiment: The compound was tested in vitro for antibacterial activity against 40 strains of constitutively erythromycin resistant Streptococcus pneumoniae Value is 40/40; type: functional, organism-based
[41] = tested on: Streptococcus pneumoniae; experiment: The compound was tested in vitro for antibacterial activity against 53 strains of Streptococcus pneumoniae PenR Value is 0.3/40; type: functional, organism-based
[42] = tested on: Haemophilus influenzae; experiment: as §1; type: functional
[43] = tested on: Haemophilus influenzae; experiment: as §2; type: functional
[44] = tested on: Haemophilus influenzae; experiment: as §3; type: functional

CC[C@H]1OC(=O)[C@H](C)C(=O)[C@H](C)[C@@H](O[C@@H]2O[C@H](C)C[C@H](N(C)C)[C@H]2O)[C@](C)(OC)C[C@@H](C)C(=O)[C@H](C)[C@H]2N(CCCCn3nnnc3-c3ccccc3)C(=O)O[C@]12C
MIC [1]: 20 µg/mL (≈ 24.6 µM) | MIC [2]: 1.2 µg/mL (≈ 1.48 µM) | MIC [3]: 0.02 µg/mL (≈ 0.0246 µM) | MIC [4]: 0.6 µg/mL (≈ 0.738 µM) | MIC [5]: 1.2 µg/mL (≈ 1.48 µM) | MIC [6]: 0.6 µg/mL (≈ 0.738 µM) | MIC [7]: 0.3 µg/mL (≈ 0.369 µM) | MIC [8]: 0.02 µg/mL (≈ 0.0246 µM) | MIC [9]: 40 µg/mL (≈ 49.2 µM) | MIC [10]: 0.02 µg/mL (≈ 0.0246 µM) | MIC [11]: 0.02 µg/mL (≈ 0.0246 µM)

CC[C@H]1OC(=O)[C@H](C)[C@@H](O[C@H]2C[C@@](C)(OC)[C@@H](O)[C@H](C)O2)[C@H](C)[C@@H](O[C@@H]2O[C@H](C)C[C@H](N(C)C)[C@H]2O)[C@](C)(O)C[C@@H](C)CN(C)[C@H](C)[C@@H](O)[C@]1(C)O [AZITHROMYCIN]
MIC [12]: 20 µg/mL (≈ 26.7 µM) | ED50 [13]: 94 mg/kg | ED50 [14]: 145 mg/kg | ED50 [15]: 56 mg/kg | MIC [16]: 1.2 µg/mL (≈ 1.6 µM) | ED50 [17]: > 50 mg/kg | ED50 [18]: > 50 mg/kg | ED50 [19]: > 50 mg/kg | ED50 [20]: 30 mg/kg | ED50 [21]: 6 mg/kg | ED50 [22]: 16 mg/kg | ED50 [23]: > 100 mg/kg | ED50 [24]: > 50 mg/kg | MIC [25]: 0.3 µg/mL (≈ 0.401 µM) | MIC [26]: 40 µg/mL (≈ 53.4 µM) | MIC [27]: 40 µg/mL (≈ 53.4 µM) | MIC [28]: 40 µg/mL (≈ 53.4 µM) | MIC [29]: 40 µg/mL (≈ 53.4 µM) | MIC [30]: 0.6 µg/mL (≈ 0.801 µM) | MIC [31]: 40 µg/mL (≈ 53.4 µM) | MIC [32]: 40 µg/mL (≈ 53.4 µM) | MIC [33]: 0.15 µg/mL (≈ 0.2 µM)

CC[C@H]1OC(=O)[C@H](C)C(=O)[C@H](C)[C@@H](O[C@@H]2O[C@H](C)C[C@H](N(C)C)[C@H]2O)[C@](C)(OC)C[C@@H](C)C(=O)[C@H](C)[C@H]2N(CCCCc3ccnc4ccccc34)C(=O)O[C@]12C
MIC [12]: 40 µg/mL (≈ 50.3 µM) | MIC [16]: 1.2 µg/mL (≈ 1.51 µM) | MIC [25]: 0.04 µg/mL (≈ 0.0503 µM) | MIC [26]: 0.08 µg/mL (≈ 0.101 µM) | MIC [27]: 1.2 µg/mL (≈ 1.51 µM) | MIC [28]: 1.2 µg/mL (≈ 1.51 µM) | MIC [29]: 1.2 µg/mL (≈ 1.51 µM) | MIC [30]: 0.02 µg/mL (≈ 0.0251 µM) | MIC [31]: 40 µg/mL (≈ 50.3 µM) | MIC [32]: 0.02 µg/mL (≈ 0.0251 µM) | MIC [33]: 0.02 µg/mL (≈ 0.0251 µM)

CC[C@H]1OC(=O)[C@H](C)[C@@H](O[C@H]2C[C@@](C)(OC)[C@@H](O)[C@H](C)O2)[C@H](C)[C@@H](O[C@@H]2O[C@H](C)C[C@H](N(C)C)[C@H]2O)[C@](C)(OC)C[C@@H](C)C(=O)[C@H](C)[C@@H](O)[C@]1(C)O [CLARITHROMYCIN]
MIC [12]: 40 µg/mL (≈ 53.5 µM) | ED50 [13]: 120 mg/kg | ED50 [14]: > 300 mg/kg | ED50 [15]: 71 mg/kg | MIC [16]: 5 µg/mL (≈ 6.68 µM) | MIC50/MIC90 [34]: Active | MIC50/MIC90 [35]: Active | ED50 [17]: > 50 mg/kg | ED50 [18]: > 50 mg/kg | ED50 [19]: > 50 mg/kg | ED50 [36]: > 50 mg/kg | ED50 [20]: 6 mg/kg | ED50 [21]: 7.5 mg/kg | ED50 [22]: 16 mg/kg | ED50 [23]: 55 mg/kg | ED50 [24]: > 50 mg/kg | MIC50/MIC90 [37]: Active | MIC50/MIC90 [38]: Active | MIC [25]: 0.3 µg/mL (≈ 0.401 µM) | MIC [26]: 40 µg/mL (≈ 53.5 µM) | MIC [27]: 40 µg/mL (≈ 53.5 µM) | MIC [28]: 40 µg/mL (≈ 53.5 µM) | MIC [29]: 40 µg/mL (≈ 53.5 µM) | MIC [30]: 0.08 µg/mL (≈ 0.107 µM) | MIC [31]: 40 µg/mL (≈ 53.5 µM) | MIC [32]: 40 µg/mL (≈ 53.5 µM) | MIC50/MIC90 [39]: Active | MIC50/MIC90 [40]: Active | MIC50/MIC90 [41]: Active | MIC [33]: 0.04 µg/mL (≈ 0.0535 µM)

CC1(C)S[C@@H]2[C@H](NC(=O)[C@H](N)c3ccccc3)C(=O)N2[C@H]1C(=O)O [AMPICILLIN]
ED50 [42]: > 600 mg/kg | ED50 [43]: 39 mg/kg | ED50 [44]: 5.5 mg/kg

Source: ChEMBL document CHEMBL1131863, “Synthesis and antibacterial activity of HMR 3647 a new ketolide highly potent against erythromycin-resistant and susceptible pathogens” (1999)
